US7772271B2 (priority 2004, dated 2010)

melting point | SMILES
205 to 207 °C | C[C@@H](OC(=O)Nc1ccc(-c2c(C#N)c3ccc(Oc4ncccn4)cc3n2C2CCC2)cc1)C(F)(F)F [Compound 2852]
189 to 190 °C | C[C@@H](OC(=O)Nc1ccc(-c2c(C#N)c3ccc(O[C@@H]4CCOC4)cc3n2C2CCC2)cc1)C(F)(F)F [Compound 2853]
113 to 116 °C | COCCOc1ccc2c(C#N)c(-c3ccc(NC(=O)O[C@H](C)c4ccc(F)cc4)cc3)n(C(C)C)c2c1 [Compound 2854]
264 °C | CC(C)NC(=O)Nc1ccc(-c2c(C#N)c3ccc(N4CCOCC4)cc3n2C2CC2)cc1 [Compound 2855]
220 to 227 °C | CC(C)OC(=O)Nc1ccc(-c2c(C#N)c3ccc(N4CCOCC4)cc3n2C2CC2)cc1 [Compound 2856]
176 to 179 °C | C[C@@H](OC(=O)Nc1ccc(-c2c(C#N)c3ccc(N4CCOCC4)cc3n2C2CC2)cc1)C1CC1 [Compound 2857]
230 to 232 °C | N#Cc1c(-c2ccc(NC(=O)NC3CCC3)cc2)n(C2CC2)c2cc(N3CCOCC3)ccc12 [Compound 2858]
200 to 201 °C | CC(C)[C@H](C)OC(=O)Nc1ccc(-c2c(C#N)c3ccc(OC4COCOC4)cc3n2C2CCC2)cc1 [Compound 2859]
197 to 198 °C | N#Cc1c(-c2ccc(NC(=O)OCC3CC3)cc2)n(C2CCC2)c2cc(OC3COCOC3)ccc12 [Compound 2860]
221 to 232 °C (dec.) | CC(OC(=O)Nc1ccc(-c2c(C#N)c3ccc(OC4COCOC4)cc3n2C2CCC2)cc1)C(C)(C)C (centres unmarked) [Compound 2861]
234 to 235 °C | CC(C)NC(=O)Nc1ccc(-c2c(C#N)c3ccc(N4CCOCC4)cc3n2C2CCC2)cc1 [Compound 2862]
172 °C (dec.) | N#Cc1c(-c2ccc(NC(=O)NC3CCC3)cc2)n(C2CCC2)c2cc(N3CCOCC3)ccc12 [Compound 2863]
220 to 222 °C | C[C@@H](OC(=O)Nc1ccc(-c2c(C#N)c3ccc(N4CCOCC4)cc3n2C2CCC2)cc1)C(F)(F)F [Compound 2864]
163 to 165 °C | C[C@@H](OC(=O)Nc1ccc(-c2c(C#N)c3ccc(N4CCOCC4)cc3n2C2CCC2)cc1)c1ccc(F)cc1 [Compound 2865]
194 to 195 °C | C[C@@H](OC(=O)Nc1ccc(-c2c(C#N)c3ccc(N4CCOCC4)cc3n2C2CCC2)cc1)C1CC1 [Compound 2866]
108 to 111 °C | C[C@@H](OC(=O)Nc1ccc(-c2c(C#N)c3ccc(OC4CCOCC4)cc3n2C2CC2)cc1)c1ccc(F)cc1 [Compound 2869]
198 to 199 °C | CC(OC(=O)Nc1ccc(-c2c(C#N)c3ccc(OC4CCOCC4)cc3n2C2CCC2)cc1)C1CCC1 (centres unmarked) [Compound 2871]
215 to 216 °C | N#Cc1c(-c2ccc(NC(=O)OC3CCC3)cc2)n(C2CCC2)c2cc(OC3COCOC3)ccc12 [Compound 2872]
170 to 180 °C | CC(C)NC(=O)Nc1ccc(-c2c(C#N)c3ccc(OCCS(C)(=O)=O)cc3n2C2CCC2)cc1 [Compound 2873]
170 to 230 °C | N#Cc1c(-c2ccc(NC(=O)NC3CCC3)cc2)n(CC2CC2)c2cc(N3CCOCC3)ccc12 [Compound 2876]
241 to 243 °C | N#Cc1c(-c2ccc(NS(=O)(=O)C3CC3)cc2)n(C2CC2)c2cc(N3CCOCC3)ccc12 [Compound 2877]
196 to 199 °C | CCOc1ccc2c(C#N)c(-c3ccc(NC(=O)O[C@H](C)C(F)(F)F)cc3)n(C3CCC3)c2c1 [Compound 2878]

melting point | SMILES
198 to 200 °C | C[C@@H](OC(=O)Nc1ccc(-c2c(C#N)c3ccc(OCCF)cc3n2C2CCC2)cc1)C(F)(F)F [Compound 2879]
161 to 162 °C | C[C@@H](OC(=O)Nc1ccc(-c2c(C#N)c3ccc(OC(F)F)cc3n2C2CCC2)cc1)C(F)(F)F [Compound 2880]
197 to 203 °C | CCn1ccnc1COc1ccc2c(C#N)c(-c3ccc(NC(=O)OC(C)C)cc3)n(C3CCC3)c2c1 [Compound 2881]
210 to 212 °C | CC(C)NC(=O)Nc1ccc(-c2c(C#N)c3ccc(OC4COCOC4)cc3n2C2CCC2)cc1 [Compound 2882]
189 to 190 °C | C[C@@H](OC(=O)Nc1ccc(-c2c(C#N)c3ccc(OC4COCOC4)cc3n2C2CCC2)cc1)C(F)(F)F [Compound 2885]
129 to 130 °C | Cc1cc(-c2c(C#N)c3ccc(OC4CCOCC4)cc3n2C2CCC2)ccc1NC(=O)OC(C)C [Compound 2889]
186 to 189 °C | CCCS(=O)(=O)Nc1ccc(-c2c(C#N)c3ccc(N4CCOCC4)cc3n2CC2CC2)cc1 [Compound 2890]
170 to 180 °C | CC(C)OC(=O)Nc1ccc(-c2c(C#N)c3ccc(N4CCOCC4)cc3n2CC2CC2)cc1 [Compound 2891]
145 to 148 °C | CC(C)OC(=O)Nc1ccc(-c2c(C#N)c3ccc(N4CCCCC4)cc3n2CC2CC2)cc1 [Compound 2892]
208 to 210 °C | CC(C)OC(=O)Nc1ccc(-c2c(C#N)c3ccc(OC4COCOC4)cc3n2C2CCC2)cc1 [Compound 2894]
247 to 249 °C | CS(=O)(=O)Nc1ccc(-c2c(C#N)c3ccc(C(=O)N4CCOCC4)cc3n2C2CCC2)cc1 [Compound 2897]
220 to 222 °C | CCS(=O)(=O)Nc1ccc(-c2c(C#N)c3ccc(C(=O)N4CCOCC4)cc3n2C2CCC2)cc1 [Compound 2898]
169 to 171 °C | CC(C)S(=O)(=O)Nc1ccc(-c2c(C#N)c3ccc(C(=O)N4CCOCC4)cc3n2C2CCC2)cc1 [Compound 2899]
198 to 200 °C | N#Cc1c(-c2ccc(NS(=O)(=O)C3CCC3)cc2)n(C2CCC2)c2cc(C(=O)N3CCOCC3)ccc12 [Compound 2900]
210 to 212 °C | CC(C)CS(=O)(=O)Nc1ccc(-c2c(C#N)c3ccc(C(=O)N4CCOCC4)cc3n2C2CCC2)cc1 [Compound 2901]
223 to 227 °C | CCCS(=O)(=O)Nc1ccc(-c2c(C#N)c3ccc(Oc4nccc(C)n4)cc3n2C2CCC2)cc1 [Compound 2902]
172 to 174 °C | Cc1ccnc(Oc2ccc3c(C#N)c(-c4ccc(NS(=O)(=O)C5CC5)cc4)n(C4CCC4)c3c2)n1 [Compound 2903]
182 to 186 °C | COc1ccnc(Oc2ccc3c(C#N)c(-c4ccc(NS(=O)(=O)CC(C)C)cc4)n(C4CCC4)c3c2)n1 [Compound 2904]
127 to 132 °C | C[C@@H](OC(=O)Nc1ccc(-c2c(C#N)c3ccc(N4CCCCC4)cc3n2CC2CC2)cc1)C1CC1 [Compound 2907]
191 to 194 °C | N#Cc1c(-c2ccc(NS(=O)(=O)C3CC3)cc2)n(CC2CC2)c2cc(N3CCCCC3)ccc12 [Compound 2908]
201 to 202 °C | Cc1nccnc1Oc1ccc2c(C#N)c(-c3ccc(NC(=O)O[C@H](C)C4CC4)cc3)n(C3CCC3)c2c1 [Compound 2909]
162 to 164 °C | C[C@@H](OC(=O)Nc1ccc(-c2c(C#N)c3ccc(OC4CCOCC4)cc3n2C2CC2)cc1)C(F)(F)F [Compound 2910]

melting point | SMILES
205 to 207 °C | CS(=O)(=O)Nc1ccc(-c2c(C#N)c3ccc(OC4CCOCC4)cc3n2C2CC2)cc1 [Compound 2911]
212 to 214 °C | CCS(=O)(=O)Nc1ccc(-c2c(C#N)c3ccc(OC4CCOCC4)cc3n2C2CC2)cc1 [Compound 2912]
172 to 174 °C | Cc1ccnc(Oc2ccc3c(C#N)c(-c4ccc(NC(=O)O[C@H](C)C5CC5)cc4)n(C4CCC4)c3c2)n1 [Compound 2913]
290 to 292 °C | N#Cc1c(-c2ccc(N3CCCS3(=O)=O)cc2)n(C2CCC2)c2cc(N3CCOCC3)ccc12 [Compound 2914]
269 to 271 °C | CS(=O)(=O)Nc1ccc(-c2c(C#N)c3ccc(N4CCOCC4)cc3n2C2CCC2)cc1 [Compound 2915]
175 to 177 °C | CC(C)CS(=O)(=O)Nc1ccc(-c2c(C#N)c3ccc(OC4COCOC4)cc3n2C2CCC2)cc1 [Compound 2917]
195 to 196 °C | N#Cc1c(-c2ccc(NS(=O)(=O)C3CCCC3)cc2)n(C2CCC2)c2cc(OC3COCOC3)ccc12 [Compound 2918]
200 to 204 °C | N#Cc1c(-c2ccc(NS(=O)(=O)C3CCC3)cc2)n(C2CCC2)c2cc(OC3COCOC3)ccc12 [Compound 2919]
196 to 198 °C | CC(C)S(=O)(=O)Nc1ccc(-c2c(C#N)c3ccc(OC4COCOC4)cc3n2C2CCC2)cc1 [Compound 2920]
241 to 245 °C | N#Cc1c(-c2ccc(N3CCCS3(=O)=O)cc2)n(CC2CC2)c2cc(N3CCOCC3)ccc12 [Compound 2921]
158 to 160 °C | CCc1cnc(Oc2ccc3c(C#N)c(-c4ccc(NC(=O)O[C@H](C)C5CC5)cc4)n(C4CCC4)c3c2)nc1 [Compound 2923]
119 to 121 °C | C[C@@H](OC(=O)Nc1ccc(-c2c(C#N)c3ccc(Oc4nccc(C(F)(F)F)n4)cc3n2C2CCC2)cc1)C1CC1 [Compound 2924]
247 to 248 °C | CCn1c(-c2ccc(N3CCCS3(=O)=O)cc2)c(C#N)c2ccc(N3CCOCC3)cc21 [Compound 2926]
260 to 265 °C | N#Cc1c(-c2ccc(N3CCCS3(=O)=O)cc2)n(C2CC2)c2cc(N3CCOCC3)ccc12 [Compound 2927]
216 to 217 °C | N#Cc1c(-c2ccc(NS(=O)(=O)C3CC3)cc2)n(C2CCC2)c2cc(OC3COCOC3)ccc12 [Compound 2928]
221 to 223 °C | CCn1c(-c2ccc(NC(=O)O[C@H](C)C(F)(F)F)cc2)c(C#N)c2ccc(Oc3ncccn3)cc21 [Compound 2929]
227 to 229 °C | CCCS(=O)(=O)Nc1ccc(-c2c(C#N)c3ccc(Oc4nccnc4Cl)cc3n2C2CCC2)cc1 [Compound 2930]
227 to 230 °C | CCCS(=O)(=O)Nc1ccc(-c2c(C#N)c3ccc(Oc4nccnc4C)cc3n2C2CCC2)cc1 [Compound 2931]
224 to 225 °C | CCCS(=O)(=O)Nc1ccc(-c2c(C#N)c3ccc(-c4c(C)noc4C)cc3n2C2CCC2)cc1 [Compound 2932]
167 to 173 °C | C[C@@H](OC(=O)Nc1ccc(-c2c(C#N)c3ccc(N4CCOCC4)cc3n2CC2CC2)cc1)C1CC1 [Compound 2933]
192 to 195 °C | CC(C)OC(=O)Nc1ccc(-c2c(C#N)c3ccc(N4CCOCC4)cc3n2C(C)C)cc1 [Compound 2934]
